Here are results for 1 molecule from patent US20060211749A1, “Treatment with omega-3 fatty acids and PPAR agonist and/or antagonist and a combination product thereof” (priority 2004, published 2006).

Structures are written as SMILES.

The experiment can be described thus: Case of a subject with familial hypertriglyceridemia: blood lipid levels on fenofibrate alone, then on concomitant Omacor and fenofibrate. Format: in vivo, human. Details: HDL-Cholesterol level / Non-HDL-Cholesterol level: unit not given here.
Setting [1] is: same subject, fenofibrate alone vs one month of concomitant therapy.

In the case of `CC(C)OC(=O)C(C)(C)Oc1ccc(C(=O)c2ccc(Cl)cc2)cc1` [Fenofibrate, 2-[4-(4-chlorobenzoyl)phenoxy]-2-methyl-propanoic acid, 1-methylethyl ester], under “person, fenofibrate (Antara 130 mg QD) about 2 weeks, then plus Omacor 4 grams/day QD for one month”, the TG level turned out to be 749 mg/dL. Under setting [1], this molecule registered an HDL-Cholesterol level of 28, a Non-HDL-Cholesterol level of 252 and a Total-Cholesterol level of 280 mg/dL.
